Laboratory results reported in patent US8658686B2, “Pyrazole compounds having therapeutic effect on multiple myeloma” (Nissan Chemical Industries, Ltd., priority 2010, dated 2014).
In brackets after ≈: the same amount, converted by molar mass. Where two headings read alike, the source gives them in different places.

Assays:
[1] = test system: RPMI8226 cells; assay: Cell proliferation assay (WST assay, Cell Counting Kit-8), myeloma cell strain RPMI8226; format: cell-based; conditions: 4 days of incubation, concentration yielding 50% inhibition of cell proliferation
Experimental: The CO2 concentration (%) in a CO2 incubator is expressed by the ratio of CO2 in the atmosphere in vol %.
Myeloma cell strain RPMI8226 (DS Pharma Biomedical Co., Ltd.) was incubated in liquid culture in a CO2 incubator (5% CO2) in RPMI1640 medium containing 10% (v/v) fetal calf serum. The resulting cells were suspended in RPMI640 medium(GIBCO) containing 10% (v/v) fetal calf serum and plated in 96-well flat-bottomed microplates (Corning Incorporated) in 100 μl/mL ([…]) per well. Furtheremore, each of the compounds prepared in Synthetic Examples was dissolved in dimethylsulfoxide and added at 0.1% (v/v) to final concentrations of 0.1 to 10 μg/mL. As the negative control, dimethyl sulfoxide was added at 0.1% (v/v).
After 4 days of incubation at 37° C. in liquid culture in a CO2 incubator (5% CO2), the viable cells were counted by the WST assay. A 10-μl aliquot of Cell Counting Kit-8 reagent solution (Dojindo Molecular Technologies, Inc.) was added to each well and incubated in a CO2 incubator (5% CO2) for 4 hours for color reaction, and light absorbance was measured at 450 nm by using a microplate reader. As the cell growth inhibitory activities in the presence of the test compounds relative to that in the absence of them (negative control), the concentrations (IC50) yielding 50% inhibition of cell proliferation were calculated.

[2] = Homo sapiens, RPMI-8226, 96 h, read-out: IC50

SMILES | IC50 [1] [µg/mL] | IC50 [1, 2] [µg/mL] | melting point [°C]
CCCCCCc1ccc(-c2c(C(C)C)nn(C(C)(C)Cc3ccc(C)cc3)c2O)cc1 [Compound No. 3-07, 4-(4-hexylphenyl)-3-isopropyl-1-(2-methyl-1-p-tolylpropan-2-yl)-1H-pyrazol-5-ol] | 5.3 (≈ 12.3 µM) | 8.8 (≈ 20.3 µM) | –
CC(C)C1=NN(C(C)(C)Cc2ccc(Br)cc2)C(=O)C1 [Compound No. 3-12, 1-(1-(4-bromophenyl)-2-methylpropan-2-yl)-3-isopropyl-1H-pyrazol-5(4H)-one] | – | 5.4 (≈ 16 µM) | –
COc1cc(-c2ccccc2)nn1C(C)(C)c1ccccc1 [Compound No. 3-13, 5-methoxy-3-phenyl-1-(2-phenylpropan-2-yl)-1H-pyrazole] | – | 5.4 (≈ 18.5 µM) | –
COc1c(C)c(-c2ccccc2)nn1C(C)(C)c1ccccc1 [Compound No. 3-14, 5-methoxy-4-methyl-3-phenyl-1-(2-phenylpropan-2-yl)-1H-pyrazole] | – | 7.9 (≈ 25.8 µM) | –
CC(C)(Cc1ccccc1)N1N=C(c2ccccc2)CC1=O [Compound No. 3-16, 1-(2-methyl-1-phenylpropan-2-yl)-3-phenyl-1H-pyrazol-5(4H)-one] | – | 3.5 (≈ 12 µM) | –
CC(C)C1=NN(C(C)(C)Cc2ccccc2)C(=O)C1Br (stereo not shown) [Compound No. 3-47, 4-bromo-3-isopropyl-1-(2-methyl-1-phenylpropan-2-yl)-1H-pyrazol-5(4H)-one] | – | 3.3 (≈ 9.78 µM) | –
COC(=O)CC1=NN(C(C)(C)c2ccccc2)C(=O)C1 [Compound No. 4-01, methyl 2-(5-oxo-1-(2-phenylpropan-2-yl)-4,5-dihydro-1H-pyrazol-3-yl)acetate] | – | 11.1 (≈ 40.5 µM) | –
COC(=O)c1ccc(-c2c(C(C)C)nn(C(C)(C)Cc3ccccc3)c2O)cc1 [Compound No. 4-23, methyl 4-(5-hydroxy-3-isopropyl-1-(2-methyl-1-phenylpropan-2-yl)-1H-pyrazol-4-yl)benzoate] | – | 6.3 (≈ 16.1 µM) | –
CCOC(=O)c1c(C(C)C)nn(C(C)(C)c2ccccc2)c1O [Compound No. 4-27, ethyl 5-hydroxy-3-isopropyl-1-(2-phenylpropan-2-yl)-1H-pyrazole-4-carboxylate] | – | 5.5 (≈ 17.4 µM) | –
CC(C)c1nn(C(C)(C)Cc2ccccc2)c(O)c1C(=O)c1ccccc1 [Compound No. 4-71, (5-hydroxy-3-isopropyl-1-(2-methyl-1-phenylpropan-2-yl)-1H-pyrazol-4-yl)(phenyl)methanone] | – | 3.2 (≈ 8.83 µM) | –
CCCCCCc1ccc(-c2c(C#N)nn(C(C)(C)Cc3ccc(C)cc3)c2O)cc1 [Compound No. 4-86, 4-(4-Hexylphenyl)-5-hydroxy-1-(2-methyl-1-(p-tolyl)propan-2-yl)-1H-pyrazole-3-carbonitrile] | – | 3.3 (≈ 7.94 µM) | 140 to 142
CON=C(C)c1c(C(C)C)nn(C(C)(C)Cc2ccccc2)c1O [Compound No. 4-89, 1-(5-Hydroxy-3-isopropyl-1-(2-methyl-1-phenylpropan-2-yl)-1H-pyrazol-4-yl)ethanone O-methyl oxime] | – | 4.7 (≈ 14.3 µM) | –
CCCCCCc1ccc(-c2cnn(C(C)(C)Cc3ccc(C)cc3)c2O)cc1 [Compound No. 4-90, 4-(4-Hexylphenyl)-1-(2-methyl-1-(p-tolyl)propan-2-yl)-1H-pyrazol-5-ol] | – | 5.5 (≈ 14.1 µM) | 149 to 151
